A short description of series [1]: Drug uptake in human HeLa cells assessed as increase in fluorescence intensity at 10 uM incubated for 24 hrs by DAPI staining based confocal microscopic analysis. It is filed as ADME, cell-based.
The test system of another series is L02. As to the kind of experiment: Cytotoxicity against human L02 cells by MTT assay. It is filed as cell-based. (In general: Tetrazolium dyes change colour on reduction, which living cells bring about.)
Another series concerns HCT-116. The experiment in a line: Cytotoxicity against human HCT-116 cells by MTT assay. It is filed as functional, cell-based.
Series [2] deals with HeLa. As to the kind of experiment: Cytotoxicity against human HeLa cells by MTT assay. The format is functional, cell-based.
Series [3] concerns HeLa. The experiment in a line: Induction of apoptosis in human HeLa cells assessed as necrotic cells measured after 12 hrs by Annexin-V-FITC/propidium iodide staining based flow cytometry. The format is functional. A general note: In flow cytometry, cells or beads pass a laser one at a time.
Series [4] can be described thus: Drug uptake in tumor of mouse xenografted with human HeLa cells administered intraperitoneally and measured after 30 mins by fluorescence imaging analysis. The format is ADME, tissue-based, Neoplasm. The following applies: in vivo, ip, 0.5 h.
In series [5] the test system is HeLa. The experiment in a line: Induction of apoptosis in human HeLa cells assessed as late apoptotic cells measured after 12 hrs by Annexin-V-FITC/propidium iodide staining based flow cytometry. It is filed as functional.
In series [6] the test system is HeLa. As to the kind of experiment: Induction of apoptosis in human HeLa cells assessed as early apoptotic cells measured after 12 hrs by Annexin-V-FITC/propidium iodide staining based flow cytometry. The format is functional.
Series [7] has as its system HeLa. As to the kind of experiment: Induction of apoptosis in human HeLa cells assessed as viable cells measured after 12 hrs by Annexin-V-FITC/propidium iodide staining based flow cytometry. The format is functional.

Drawing on ChEMBL document CHEMBL4808223, “Design, synthesis and biological activity of bis-sulfonyl-BODIPY probes for tumor cell imaging” (Bioorg Med Chem Lett, 2021), this text covers Drug uptake, IC50 and Activity for three compounds.

For the compound `CCC1=C(C)C2=C(c3ccccc3)c3ccc(NCCN)n3[B-](F)(F)[N+]2=C1C`, in series [1], the Drug uptake entry is given as “Active”.

In the case of `CCC1=C(C)C2=C(c3ccccc3)c3ccc(NCCNCC(=O)c4ccc(OS(C)(=O)=O)cc4OS(C)(=O)=O)n3[B-](F)(F)[N+]2=C1C`, the results for the IC50 in the series with L02, in the series with HCT-116 and in the series on HeLa [2] were 41.7 µM, 101 µM and 95.5 µM, respectively. In addition, the Drug uptake result in series [1] is listed as “Active”.

With `CCC1=C(C)C2=C(c3ccccc3)c3ccc(NCCNCC(=O)c4ccc(OS(=O)(=O)c5ccccc5)cc4OS(=O)(=O)c4ccccc4)n3[B-](F)(F)[N+]2=C1C`, the Activity in the series on HeLa [3] is 0.91%; in the series on HeLa [5], 2.46%; with HeLa [6], 0.24%; in the series on HeLa [7], 96.38%. Further, the figures for the IC50 with L02, in the series on HCT-116 and with HeLa [2] were 53.3 µM, 93.1 µM and 89.1 µM, respectively. Moreover, the Drug uptake entry in series [4] and in series [1] was “Active” in each case.

Usually IC50 stands for the concentration needed to halve the response being measured. Lower therefore signals inhibition by little substance.
